Test results: article PMC10269622, “Blapstin, a Diapause-Specific Peptide-Like Peptide from the Chinese Medicinal Beetle Blaps rhynchopetera, Has Antifungal Function” (Microbiology Spectrum, 2023)
Bridge positions count the residues as written; N and C are the ends. Ends that are not written are not given here.

Key:
[1] = test system: C. albicans ATCC 10231 biofilm; test: Inhibition of biofilm formation (crystal violet); type: cell-based, Candida albicans; conditions: 0.5×, 1×, 2×, 4× and 8× MIC, 24 h, 37°C, absorbance at 600 nm
Procedure: Biofilms are microbial aggregates produced by the extracellular matrix that are attached to abiotic and biotic surfaces ([57]). A biofilm inhibition assay was performed as previously described, with minor modifications, to determine the ability of blapstin to inhibit biofilm formation ([69], [70]). In brief, the concentration of C. albicans ATCC 10231 was adjusted to 1 × 10^6 CFU/mL, and 200 μL per well was added to sterile 96-well plates mixed with different concentrations of blapstin (0.5×, 1×, 2×, 4×, and 8× MIC). After incubation for 24 h at 37°C, these wells were washed three times with PBS to remove unadhered fungal cells, followed by fixation with 99% methanol for 15 min. Next, methanol was removed, and the wells were allowed to dry. Then, 100 μL of 0.1% crystal violet was added to each well for 10 min, and the plate was washed three times. Finally, 100 μL of 95% ethanol was added, and the absorbance at 600 nm was measured to assess biofilm formation. Fluconazole at 10 μM and clotrimazole at 10 μΜ were used as a positive control, and sterile 0.9% NaCl was used as a negative control.

chymotrypsin = test: Effect of protease on antifungal activity; type: in vitro ADME; conditions: 0.5 μL of 10 mg/mL chymotrypsin with 20 μL of 225 μM peptide, 37°C, 1 h; read-out paper disk assay against C. albicans
Procedure: (§1) (iii) Effects of protease. In terms of the influence of protease on the antifungal activity of blapstin, trypsin and chymotrypsin were selected for the experiment, and 0.5 μL of a 10-mg/mL concentration of proteases (including trypsin and chymotrypsin) and (20 μL(225 μM) of blapstin were mixed and incubated at 37°C for 1 h ([64]). Colistin E was used as the positive control, and 1.5% NaCl was used as the negative control. Then, these samples were transferred to the paper disks in the YM solid medium with C. albicans and incubated at 37°C for 18 h for the assay of antifungal activity.

trypsin = test: Effect of protease on antifungal activity; type: in vitro ADME; conditions: 0.5 μL of 10 mg/mL trypsin with 20 μL of 225 μM peptide, 37°C, 1 h; read-out paper disk assay against C. albicans
Procedure: as §1

ion channel = test: Ion channel inhibition; conditions: stated in the discussion only, no method or channel given
human erythrocytes = test: Hemolysis assay; type: cell-based; conditions: concentration as high as 56.25 μM, 30 min, 37°C; 1% Triton X-100 as maximum hemolysis; three independent experiments
Procedure: As previously reported ([65], [67]), hemolytic activity and cytotoxicity assays were performed using human erythrocytes and mouse macrophages (RAW 264.7 cells). These cells were obtained from Kunming Medical University and Cell Bank of Kunming Institute of Zoology, Chinese Academy of Sciences, respectively. To investigate the hemolytic activity, washed erythrocytes were diluted with normal saline into a suspension of 10^7 to 10^8 cells/mL and mixed with serial dilutions of blapstin (from 1.76 μM to 225 μM) at a 1:1 ratio, followed by incubation for 30 min at 37°C. Then, these erythrocytes were centrifuged for 15 min at 500 × g (Eppendorf, Germany; FA-45-24-11, 4°C). Next, the supernatant was collected, and the hemolysis rate (%) was measured to quantify the hemolysis of blapstin. The maximum hemolysis rate was determined using an equal volume of 1% Triton X-100 as a positive control, and the zero hemolysis rate was determined using sterile normal saline as a negative control. Hemolytic activity was calculated using the following formula: hemolysis rate (%) = (hemolysis of experimental group-negative control)/(hemolysis of positive control-negative control) × 100%. HC50 values were defined as the peptide concentrations causing 50% hemolysis of human erythrocytes.

C. albicans ATCC 10231 = test: Fungus-killing kinetics (colony counting); type: cell-based, Candida albicans; conditions: 5× MIC, 2 × 10^5 CFU/mL in YM broth, 37°C, three independent experiments
Procedure: The in vitro killing curve for blapstin against C. albicans was determined as described previously with minor modifications ([66]). In brief, C. albicans ATCC 10231 was diluted to 2 × 10^5 CFU/mL with sterile YM liquid broth. Different concentrations of blapstin (1×, 5×, and 10× MIC) were added to the fungal suspension and cultured at 37°C for various periods (0, 1, 10, 30, 60, and 180 min). Colistin E (1×, 5×, and 10× MIC) was used as a positive control, and 0.9% NaCl was used as a negative control. Within the specified time interval after incubation, the fungal suspensions were diluted 1,000-fold with YM medium, and 100 μL of the diluted fungal suspension was inoculated on YM solid medium. After incubation at 37°C for 24 h, colony counting was performed and the results were expressed as CFU per milliliter.

VRVGPCDQVCSRTNPEKDECCRAHGHSGHSSCYGGRMNCYG (disulfide 6-21, 10-32, 20-39 (inferred)) [Blapstin]
Biofilm formation by C. albicans [1]: dose-dependently inhibited
Sensitivity of antifungal activity to protease (chymotrypsin): insensitive
Sensitivity of antifungal activity to protease (trypsin): insensitive
Ion channel inhibition activity (ion channel): did not show ion channel inhibition activity
Hemolytic activity against human erythrocytes (human erythrocytes): little hemolytic activity
Time to kill C. albicans ATCC 10231 (C. albicans ATCC 10231): less than 60 min
